# Data published in patent publication US20180133211A1, “METHODS AND MATERIALS FOR PROMOTING BONE FORMATION” (Mayo Foundation for Medical Education and Research, priority 2015, published 2018).
# What was measured:
# [1] = Tolerability of DL-SFN injections in mice; assay type: in vivo, mouse; details: 7.5 mM DL-SFN, 200 μL intraperitoneally every other day for five weeks
# Experimental: (§1) Analysis of SFN on mice was performed using a protocol similar to that described elsewhere (Kong et al., Arthritis Rheum., 62:159-170 (2010)). In the experimental setting herein, eight week old sham operated or ovariectomized (OVX) C57B16/J female mice were purchased from Charles River laboratories. Mice were injected with 7.5 mM DL-SFN (200 μL of SFN at a concentration of 63.8 mg/mL/kg dissolved in ethanol and further diluted in PBS) intraperitoneally every other day for five weeks. Control mice received vehicle alone.
# [2] = test system: Runx2 protein in MC3T3-E1 cells; assay: Runx2 immunoblotting; assay type: cell-based, mouse; details: MC3T3-E1, 3 μM, after both 24 hours and 14 days
# Experimental: Whole cell protein extracts were prepared using SDS sample buffer (2% SDS, 100 mM β-mercaptoethanol and 125 mM Tris-HCl, pH=6.8) and heated at 95° C. for 5 minutes. To obtain supernatant protein extracts, cell medium was collected, and proteins were precipitated with 50% trichloroacetic acid at 4° C. for 1 hour, concentrated by centrifugation, neutralized with PBS, and dissolved in SDS sample buffer.
# For immunoblotting analysis, 15 μg of protein extracts were separated on 10% SDS poly-acryl amide gels, transferred to nitrocellulose membranes (Millipore), and blocked overnight with 10% blocking reagent (Roche) in TN buffer (50 mM Tris and 125 mM NaCl, pH=8.0). The following primary antibodies were used: rabbit, anti-Runx2 (sc-10758, Santa Cruz Biotechnologies, Santa Cruz, Calif.) and rabbit, anti-β-Actin (#4967, Cell Signaling, Danvers, Mass., USA). Washing was performed with TN buffer containing 0.01% Tween. Binding of the secondary antibody (anti-rabbit IgG/anti-mouse IgG horseradish peroxidase-coupled) (Roche) diluted 1:10,000 in 10% blocking solution followed by detection with the BM chemo-luminescence immunoblotting kit (Roche) was carried out as described by the supplier. Chemo-luminescence was measured with an image acquisition system (Vilber Lourmat, Marne-la-Vallée, France). Measurements are given as means of 3 immuno-blots, and representative blots are shown.
# [3] = test system: sham operated or ovariectomized (OVX) mice; assay: Quantitative backscattered electron imaging (qBEI) of bone mineralization, SFN in vivo; set-up: species or system mouse; details: two-way ANOVA
# Experimental: as §1
# Un-decalcified distal femora from 13 weeks old mice, sham/Crt (n=5), sham/DL-SFN (n=5), OVX/ctrl (n=4) and OVX/DL-SFN (n=5), were fixed and dehydrated in alcohol, embedded in polymethylmethacrylate (PMMA), and prepared for backscattered electron imaging as previously described. qBEI is based on backscattering of electrons from the surface-layer (i.e., the initial ˜1.5 micron) of a bone section. The rate of these backscattered electrons is proportional to the weight concentration of mineral (hydroxyapatite), and thus of that of calcium in bone. Details of the method were described elsewhere (Roschger et al., Bone, 42:456-466 (2008)). A scanning electron microscope (DSM 962, Zeiss, Oberkochen, Germany) equipped with a four quadrant semiconductor backscattered electron detector was used. […]
# [4] = test system: sham or OVX female C57BL/6 mice; assay: microCT of femur in estrogen-deficient ovariectomy (OVX) model, GSK126 for 6 weeks; assay type: in vivo, mouse; details: for SMI / Tb.N / Tb.Sp / Tb.Th / BV/TV: distal femur metaphysis; for SMI / Tb.N / Tb.Sp / Tb.Th / Ct. Ar / Ct. BV / Ct. Mat.M.Dn / Ct. Ps.Ar / Ct. Th / Ec. Ar / BV/TV: 50 mg/kg, 6 weeks; for SMI / Tb.N / Tb.Sp / Tb.Th / Ct. Ar / Ct. BV / Ct. Mat.M.Dn / Ct. Ps.Ar / Ct. Th / Ec. Ar / Ct. TV / BV/TV: mean; for Ct. Ar / Ct. BV / Ct. Mat.M.Dn / Ct. Ps.Ar / Ct. Th / Ec. Ar / Ct. TV: femoral midshaft; for Ct. TV: GSK126 50 mg/kg daily IP 6 weeks; for BV/TV: trabecular bone
# Experimental: The effects of GSK126 administration on the skeleton was evaluated in an estrogen-deficient ovariectomy (OVX) model. At about 12 weeks of age, female C57BL/6 mice underwent either sham or OVX surgeries. The following day, animals received daily IP injections of GSK126 or vehicle (DMSO) at 50 mg/kg body weight for 6 weeks as described herein. To label mineralizing bone surfaces and study bone formation rates, mice received subcutaneous injections of tetracycline (25 mg/kg) 14 days prior sacrifice and calcein (10 mg/kg) at 5 days and 24 hours before euthanasia.
# The quantitative analysis of the femoral metaphysis was performed using a vivaCT 40 scanner (SCANCO Medical AG) with the following parameters: E=55 kVp, 1=145 μA, integration time=300 ms. A 10.5 μm voxel size using a threshold of 220 was applied to all scans at high resolution. Using two-dimensional data from scanned slices, 3D analysis was generated and used to calculate morphometric parameters defining trabecular bone mass and micro-architecture, including Bone Volume/Tissue volume (BV/TV), trabecular number (Tb.N.), trabecular thickness (Tb.Th.), trabecular spacing (Tb.Sp.), and the structure model index (SMI), an indicator of plate-like versus rod-like trabecular architecture.
smiles,measurement,setting,value
C[S+]([O-])CCCCN=C=S (racemic) [DL-SFN],"apparent adverse effects (weight loss, physical appearance, behavior)",[1],did not show apparent adverse effects
same,Runx2 protein expression,[2],significant increase
same,CaPeak and CaWidth of trabecular bone (qBEI),[3],no effects
"CC[C@H](C)n1cc(C)c2c(C(=O)NCc3c(C)cc(C)[nH]c3=O)cc(-c3ccc(N4CCNCC4)nc3)cc21 [GSK126, N-[(1,2-dihydro-4,6-dimethyl-2-oxo-3-pyridinyl)methyl]-3-methyl-1-[(1S)-1-methylpropyl]-6-[6-(1-piperazinyl)-3-pyridinyl]-1H-indole-4-carboxamide]",SMI,[4]; OVX,3.758
same,Tb.N,[4]; OVX,2.102 mm^−1
same,Tb.Sp,[4]; OVX,0.499 mm
same,Tb.Th,[4]; OVX,0.047 mm
same,Ct. Ar,[4]; OVX,0.771 mm^2
same,Ct. BV,[4]; OVX,0.405 mm^3
same,Ct. Mat.M.Dn,[4]; OVX,1067 mgHA/cm^3
same,Ct. Ps.Ar,[4]; OVX,0.809 mm^2
same,Ct. Th,[4]; OVX,0.19 mm
same,Ec. Ar,[4]; OVX,0.038 mm^2
same,Ct. TV,[4]; OVX,0.425 mm^3
same,BV/TV,[4]; OVX,1.404%
same,SMI,[4]; SHAM,4.168
same,Tb.N,[4]; SHAM,2.496 mm^−1
same,Tb.Sp,[4]; SHAM,0.402 mm
same,Tb.Th,[4]; SHAM,0.042 mm
same,Ct. Ar,[4]; SHAM,0.782 mm^2
same,Ct. BV,[4]; SHAM,0.411 mm^3
same,Ct. Mat.M.Dn,[4]; SHAM,1065 mgHA/cm^3
same,Ct. Ps.Ar,[4]; SHAM,0.82 mm^2
same,Ct. Th,[4]; SHAM,0.197 mm
same,Ec. Ar,[4]; SHAM,0.037 mm^2
same,Ct. TV,[4]; SHAM,0.430 mm^3
same,BV/TV,[4]; SHAM,1.642%
same,OVX-induced cortical bone loss,"[4]; ovariectomized female mice, daily regimen, in words",mitigated
